Assay results reported in ChEMBL document CHEMBL4033767, “Structure-Guided Strategy for the Development of Potent Bivalent ERK Inhibitors” (ACS Med Chem Lett, 2017).
Values belong to the compound of their own block, whether it stands above or below them. Residues, ends and D or L forms follow the SMILES beside them. *: point of attachment. X1 = Nc1nn(CC(=O)*)c2nnc(-c3c(-c4ccccc4)nn4ccccc34)cc12; PEG4 = NCCOCCOCCOCCOCCC(=O)O

Key:
[1] = target: Mitogen-activated protein kinase 3 (Homo sapiens) (UniProt P27361); assay: Inhibition of full length wild type human ERK1 (M1 to P379 residues) expressed in bacterial expression system assessed as residual activity at 2 uM by KINOMEscan assay
[2] = target: Mitogen-activated protein kinase 8 (Homo sapiens) (UniProt P45983); assay: Inhibition of full length wild type human JNK1 (M1 to Q384 residues) expressed in mammalian expression system assessed as residual activity at 2 uM by KINOMEscan assay
[3] = target: Mitogen-activated protein kinase 9 (Homo sapiens) (UniProt P45984); assay: Inhibition of full length wild type human JNK2 (M1 to Q382 residues) expressed in mammalian expression system assessed as residual activity at 2 uM by KINOMEscan assay
[4] = target: Mitogen-activated protein kinase 10 (Homo sapiens) (UniProt P53779); assay: Inhibition of full length wild type human JNK3 (M1 to Q382 residues) expressed in mammalian expression system assessed as residual activity at 2 uM by KINOMEscan assay
[5] = target: Mitogen-activated protein kinase 14 (Homo sapiens) (UniProt Q16539); assay: Inhibition of full length wild type human p38alpha (M1 to S360 residues) expressed in bacterial expression system assessed as residual activity at 2 uM by KINOMEscan assay
[6] = target: Mitogen-activated protein kinase 11 (Homo sapiens) (UniProt Q15759); assay: Inhibition of full length wild type human p38beta (M1 to Q364 residues) expressed in bacterial expression system assessed as residual activity at 2 uM by KINOMEscan assay
[7] = target: Glycogen synthase kinase-3 beta (Homo sapiens, UniProt P49841); assay: Binding affinity to full length wild type human GSK3beta (M1 to T433 residues) expressed in mammalian expression system by KINOMEscan assay
[8] = target: T1, Mitogen-activated protein kinase 1 (Homo sapiens, UniProt P28482); assay: Inhibition of phosphorylated ERK2 (unknown origin) using myelin basic protein as substrate after 2 hrs in presence of ATP by ADP-glo assay
[9] = target: T1, Mitogen-activated protein kinase 1; assay: Binding affinity to non-phosphorylated full length N-terminal His6-tagged/SUMO-fused ERK2 (1 to 360 residues) (unknown origin) by isothermal titration method
Homo sapiens = organism: Homo sapiens; assay: Selectivity ratio of compound affinity for C-terminal FLAG-tagged human ERK2 to C-terminal FLAG-tagged human p38 alpha

T1 sequence (P28482 whole entry, the tested form may be a part): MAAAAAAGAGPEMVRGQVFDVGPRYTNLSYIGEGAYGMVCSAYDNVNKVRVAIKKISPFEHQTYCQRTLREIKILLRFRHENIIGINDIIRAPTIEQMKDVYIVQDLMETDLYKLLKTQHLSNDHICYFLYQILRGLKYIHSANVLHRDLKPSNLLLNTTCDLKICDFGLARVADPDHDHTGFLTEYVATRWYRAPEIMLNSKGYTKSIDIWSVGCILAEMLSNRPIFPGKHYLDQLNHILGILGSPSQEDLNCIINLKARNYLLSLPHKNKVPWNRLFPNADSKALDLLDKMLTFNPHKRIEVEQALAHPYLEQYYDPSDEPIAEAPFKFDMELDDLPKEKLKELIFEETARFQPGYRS
Chain of Glycogen synthase kinase-3 beta (P49841 whole entry, the tested form may be a part): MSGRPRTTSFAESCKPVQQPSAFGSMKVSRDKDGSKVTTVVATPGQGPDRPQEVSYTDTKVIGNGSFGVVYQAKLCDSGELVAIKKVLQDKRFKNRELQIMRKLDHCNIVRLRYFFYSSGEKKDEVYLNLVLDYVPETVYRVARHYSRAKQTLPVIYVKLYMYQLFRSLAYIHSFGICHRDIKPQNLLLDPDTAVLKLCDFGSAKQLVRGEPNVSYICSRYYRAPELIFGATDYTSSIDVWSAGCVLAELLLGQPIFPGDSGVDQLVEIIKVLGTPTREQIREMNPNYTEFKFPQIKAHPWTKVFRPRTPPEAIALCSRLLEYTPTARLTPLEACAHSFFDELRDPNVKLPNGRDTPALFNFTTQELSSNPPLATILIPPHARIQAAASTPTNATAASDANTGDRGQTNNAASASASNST
Chain of Mitogen-activated protein kinase 9 (Homo sapiens) (P45984 whole entry, looked up, the tested form may be a part): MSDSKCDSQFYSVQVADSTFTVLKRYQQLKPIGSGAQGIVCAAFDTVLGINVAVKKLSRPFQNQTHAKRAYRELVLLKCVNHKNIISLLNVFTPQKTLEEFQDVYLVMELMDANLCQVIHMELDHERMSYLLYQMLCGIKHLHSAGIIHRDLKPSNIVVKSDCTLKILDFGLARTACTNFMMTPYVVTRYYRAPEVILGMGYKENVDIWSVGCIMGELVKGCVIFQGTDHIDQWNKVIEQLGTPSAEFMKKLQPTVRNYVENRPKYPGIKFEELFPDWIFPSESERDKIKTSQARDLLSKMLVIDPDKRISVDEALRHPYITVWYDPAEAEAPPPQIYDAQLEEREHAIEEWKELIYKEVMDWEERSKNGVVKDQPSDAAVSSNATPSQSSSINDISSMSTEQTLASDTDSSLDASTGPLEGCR
Chain of Mitogen-activated protein kinase 11 (Homo sapiens) (Q15759 whole entry, the tested form may be a part): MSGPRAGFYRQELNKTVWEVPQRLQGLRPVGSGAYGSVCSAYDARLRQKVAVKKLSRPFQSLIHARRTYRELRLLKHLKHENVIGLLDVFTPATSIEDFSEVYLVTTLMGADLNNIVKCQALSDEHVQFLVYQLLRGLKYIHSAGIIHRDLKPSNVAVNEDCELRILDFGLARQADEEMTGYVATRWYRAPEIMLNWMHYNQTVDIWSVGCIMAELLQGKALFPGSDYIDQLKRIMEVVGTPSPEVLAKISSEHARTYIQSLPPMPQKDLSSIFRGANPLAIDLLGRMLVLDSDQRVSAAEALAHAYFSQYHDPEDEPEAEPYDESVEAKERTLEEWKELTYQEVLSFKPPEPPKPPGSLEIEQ
Chain of Mitogen-activated protein kinase 10 (Homo sapiens) (P53779 whole entry, the tested form may be a part): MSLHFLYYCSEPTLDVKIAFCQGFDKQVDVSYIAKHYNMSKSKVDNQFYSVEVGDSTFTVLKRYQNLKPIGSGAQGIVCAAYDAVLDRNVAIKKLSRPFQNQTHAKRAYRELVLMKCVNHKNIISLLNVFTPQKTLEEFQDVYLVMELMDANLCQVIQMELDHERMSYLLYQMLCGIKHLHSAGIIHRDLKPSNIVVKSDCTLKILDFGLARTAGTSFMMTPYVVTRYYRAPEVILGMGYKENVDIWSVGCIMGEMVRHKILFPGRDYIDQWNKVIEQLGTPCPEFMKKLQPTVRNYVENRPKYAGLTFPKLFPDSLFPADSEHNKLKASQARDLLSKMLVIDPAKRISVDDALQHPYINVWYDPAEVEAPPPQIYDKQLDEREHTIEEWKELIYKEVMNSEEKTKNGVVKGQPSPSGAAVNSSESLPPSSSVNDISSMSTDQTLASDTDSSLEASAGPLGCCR
Chain of Mitogen-activated protein kinase 14 (Homo sapiens) (Q16539 whole entry, the tested form may be a part): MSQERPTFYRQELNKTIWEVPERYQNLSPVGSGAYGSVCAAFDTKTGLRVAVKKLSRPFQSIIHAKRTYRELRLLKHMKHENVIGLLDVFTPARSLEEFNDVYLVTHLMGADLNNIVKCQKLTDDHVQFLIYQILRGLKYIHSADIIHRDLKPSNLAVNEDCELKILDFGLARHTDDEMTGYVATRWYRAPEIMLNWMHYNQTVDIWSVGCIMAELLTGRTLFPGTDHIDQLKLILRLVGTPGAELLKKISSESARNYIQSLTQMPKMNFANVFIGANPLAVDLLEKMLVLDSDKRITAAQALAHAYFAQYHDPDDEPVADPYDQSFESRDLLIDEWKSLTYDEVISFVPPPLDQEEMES
Chain of Mitogen-activated protein kinase 8 (Homo sapiens) (P45983 whole entry, the tested form may be a part): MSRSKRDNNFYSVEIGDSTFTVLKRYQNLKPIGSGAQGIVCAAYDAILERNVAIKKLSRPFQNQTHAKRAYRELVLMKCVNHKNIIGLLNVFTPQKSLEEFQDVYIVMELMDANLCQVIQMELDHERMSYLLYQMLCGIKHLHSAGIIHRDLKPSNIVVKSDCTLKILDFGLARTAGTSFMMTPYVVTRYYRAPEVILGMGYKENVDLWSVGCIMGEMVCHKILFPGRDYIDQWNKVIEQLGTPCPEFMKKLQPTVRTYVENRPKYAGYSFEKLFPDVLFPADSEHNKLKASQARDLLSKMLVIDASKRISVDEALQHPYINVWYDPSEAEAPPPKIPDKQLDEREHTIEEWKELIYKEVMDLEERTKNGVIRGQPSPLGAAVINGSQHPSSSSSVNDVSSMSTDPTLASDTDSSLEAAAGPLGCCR
Chain of Mitogen-activated protein kinase 3 (Homo sapiens) (P27361 whole entry, the tested form may be a part): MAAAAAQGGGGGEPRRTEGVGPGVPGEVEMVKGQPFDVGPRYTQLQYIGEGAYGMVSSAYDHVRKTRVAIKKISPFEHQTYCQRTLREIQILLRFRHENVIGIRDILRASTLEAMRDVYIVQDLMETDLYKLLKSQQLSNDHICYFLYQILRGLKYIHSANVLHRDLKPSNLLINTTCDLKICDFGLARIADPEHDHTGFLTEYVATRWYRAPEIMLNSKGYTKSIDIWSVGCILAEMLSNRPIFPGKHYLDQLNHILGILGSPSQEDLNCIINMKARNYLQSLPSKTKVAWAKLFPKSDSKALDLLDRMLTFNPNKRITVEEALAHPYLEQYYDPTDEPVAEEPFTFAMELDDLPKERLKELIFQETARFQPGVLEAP

Activity [1]: 0.15%
Activity [2]: 0.1%
Activity [3]: 0.1%
Activity [4]: 0.1%
Activity [5]: 0.25%
Activity [6]: 11%
Kd [7]: > 2500 nM
Compound: CC[C@H](C)[C@H](NC(=O)[C@H](CO)NC(=O)[C@H](CO)NC(=O)[C@H](CCC(=O)O)NC(=O)[C@@H](NC(=O)[C@@H]1CCCN1C(=O)[C@H](CCCCN)NC(=O)[C@H](CC(C)C)NC(=O)[C@H](CCC(N)=O)NC(=O)[C@H](C)NC(=O)[C@@H](NC(=O)CNC(=O)C(N)CCCCn1cc(CCCCNC(=O)CCCCCn2nc(N)c3cc(-c4c(-c5ccccc5)nn5ccccc45)nnc32)nn1)[C@@H](C)O)[C@@H](C)CC)C(=O)N[C@@H](CC(C)C)C(=O)N[C@@H](C)C(=O)N[C@@H](CCC(N)=O)C(=O)N[C@@H](CCCNC(=N)N)C(=O)N[C@@H](CCCNC(=N)N)C(=O)N[C@H](C(=O)N[C@@H](CCCNC(=N)N)C(=O)N[C@@H](CCCCN)C(=O)O)C(C)C (some centres not stated)

IC50 [8]: 12300 nM
Compound: Nc1nn(CC(=O)O)c2nnc(-c3c(-c4ccccc4)nn4ccccc34)cc12

Kd [9]: 18000 nM
Compound: H-EIIKLAPPPKKA-OH

IC50 [8]: 14 nM
Compound: CC[C@H](C)[C@H](NC(=O)[C@H](CO)NC(=O)[C@H](CO)NC(=O)[C@H](CCC(=O)O)NC(=O)[C@@H](NC(=O)[C@@H]1CCCN1C(=O)[C@H](CCCCN)NC(=O)[C@H](CC(C)C)NC(=O)[C@H](CCC(N)=O)NC(=O)[C@H](C)NC(=O)[C@@H](NC(=O)CCOCCOCCOCCOCCNC(=O)Cn1nc(N)c2cc(-c3c(-c4ccccc4)nn4ccccc34)nnc21)[C@@H](C)O)[C@@H](C)CC)C(=O)N[C@@H](CC(C)C)C(=O)N[C@@H](C)C(=O)N[C@@H](CCC(N)=O)C(=O)N[C@@H](CCCNC(=N)N)C(=O)N[C@@H](CCCNC(=N)N)C(=O)N[C@H](C(=O)N[C@@H](CCCNC(=N)N)C(=O)N[C@@H](CCCCN)C(=O)N[C@@H](CCCNC(=N)N)C(=O)N[C@@H](CCCCN)C(=O)N[C@@H](CCCCN)C(=O)N[C@@H](CCCNC(=N)N)C(=O)N[C@@H](CCCNC(=N)N)C(=O)N[C@@H](CCC(N)=O)C(=O)N[C@@H](CCCNC(=N)N)C(=O)N[C@@H](CCCNC(=N)N)C(=O)N[C@@H](CCCNC(=N)N)C(=O)O)C(C)C ({X1-PEG4}-TAQLKPIESSILAQRRVRKRKKRRQRRR-OH)

Selectivity ratio (Homo sapiens): 20
Compound: H-PQLKPIESSILAQRRVRKLPSTTL-OH

IC50 [8]: 700 nM
Compound: CC[C@H](C)[C@H](NC(=O)[C@H](CCC(=O)O)NC(=O)CCOCCOCCOCCOCCNC(=O)Cn1nc(N)c2cc(-c3c(-c4ccccc4)nn4ccccc34)nnc21)C(=O)N[C@H](C(=O)N[C@@H](CCCCN)C(=O)N[C@@H](CC(C)C)C(=O)N[C@@H](C)C(=O)N1CCC[C@H]1C(=O)N1CCC[C@H]1C(=O)N1CCC[C@H]1C(=O)N[C@@H](CCCCN)C(=O)N[C@@H](CCCCN)C(=O)N[C@@H](C)C(=O)O)[C@@H](C)CC ({X1-PEG4}-EIIKLAPPPKKA-OH)
